# Assay results taken from patent publication US20230114728A1 (Venatorx Pharmaceuticals, Inc., priority 2019, published 2023).
# Experiments:
# Type in all cases: cell-based
# N. gonorrhoeae WHO Q = assay: Liquid broth MIC in Fastidious broth; details: Neisseria gonorrhoeae, read-out: Minimum Inhibitory Concentration, N. gonorrhoeae WHO Q
# Method in brief: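 Broth microdilution against gonococcal strains expressing mosaic PBP2, starting inoculum 5×10^5 CFU/mL in Fastidious broth. Incubation runs ~24 h at 36 °C under 5% CO2, with MIC scored visually at <10% of full growth.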
# [1] = system: K. pneumoniae SI-117 producing VIM-1; assay: Broth microdilution MIC in CAMHB; details: Klebsiella pneumoniae, read-out: Minimum Inhibitory Concentration, K. pneumoniae SI-117
# Method in brief: (§1)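 Per CLSI broth microdilution, colonies were grown 3-5 h at 37° C in cation-adjusted Mueller Hinton broth, then diluted to a starting inoculum of 2-8×10^5 CFU/mL against 2-fold serial compound dilutions. Plates were incubated 16-20 h at 37° C, and MIC was read visually as the lowest concentration with no growth.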
# [2] = system: K. pneumoniae UMM producing SHV-5 and KPC-2; assay: Broth microdilution MIC in CAMHB; details: Klebsiella pneumoniae, read-out: Minimum Inhibitory Concentration, K. pneumoniae UMM
# Method in brief: as §1
# [3] = system: P. aeruginosa (ΔmexAB-oprM); assay: Broth microdilution MIC in CAMHB; details: Pseudomonas aeruginosa, read-out: Minimum Inhibitory Concentration, P. aeruginosa ΔmexAB-OprM
# Method in brief: as §1
# E. coli 901C = assay: Broth microdilution MIC in CAMHB; details: Escherichia coli; E. coli 901C (hyper-permeable); MHB; read-out: Minimum Inhibitory Concentration, E. coli 901C
# Method in brief: as §1
# P. aeruginosa ATCC 27853 = assay: Broth microdilution MIC in CAMHB; details: Pseudomonas aeruginosa, ATCC27853; MHB; read-out: Minimum Inhibitory Concentration, P. aeruginosa ATCC 27853
# Method in brief: as §1
# A. baumannii ATCC 19606 = assay: Broth microdilution MIC in CAMHB; details: Acinetobacter baumannii, ATCC19606; MHB; read-out: Minimum Inhibitory Concentration, A. baumannii ATCC 19606
# Method in brief: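 Colonies from cation-adjusted Mueller Hinton agar are grown in broth (3-5 h, 37° C), adjusted by OD600, and added at 2-8×10^5 CFU/mL to 2-fold compound dilutions. After 16-20 h at 37° C, the lowest concentration without growth is taken as MIC.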
# E. coli AG100A = assay: Broth microdilution MIC in CAMHB; details: Escherichia coli, read-out: Minimum Inhibitory Concentration, E. coli AG100A
# Method in brief: as §1
# E. coli AG100 = assay: Broth microdilution MIC in CAMHB; details: Escherichia coli; E. coli AG100 (wild-type parent); MHB; read-out: Minimum Inhibitory Concentration, E. coli AG100
# Method in brief: as §1
# E. coli ATCC 25922 = assay: Broth microdilution MIC in CAMHB; details: Escherichia coli, ATCC25922; E. coli ATCC 25922; MHB; read-out: Minimum Inhibitory Concentration, E. coli 25922
# Method in brief: as §1
# E. coli D22 = assay: Broth microdilution MIC in CAMHB; details: Escherichia coli; E. coli D22 (hyper-permeable); MHB; read-out: Minimum Inhibitory Concentration, E. coli D22
# Method in brief: as §1
# P. aeruginosa ATCC 35151 = assay: Broth microdilution MIC in CAMHB; details: Pseudomonas aeruginosa, ATCC35151; MHB; hyper-permeable strain; read-out: Minimum Inhibitory Concentration, P. aeruginosa ATCC 35151
# Method in brief: as §1
# [4] = system: K. pneumoniae 848844 producing SHV-11 and KPC-2; assay: Broth microdilution MIC in CAMHB; details: Klebsiella pneumoniae, read-out: Minimum Inhibitory Concentration, K. pneumoniae 848844
# Method in brief: as §1
Structure (SMILES),MIC (N. gonorrhoeae WHO Q),MIC [1],MIC [2],MIC [3],MIC (E. coli 901C),MIC (P. aeruginosa ATCC 27853),MIC (A. baumannii ATCC 19606),MIC (E. coli AG100A),MIC (E. coli AG100),MIC (E. coli ATCC 25922),MIC (E. coli D22),MIC (P. aeruginosa ATCC 35151),MIC [4]
"NCCN1CCN(C(=O)NC(C(=O)N[C@H]2Cc3cccc(C(=O)O)c3OB2O)c2cc(F)c(O)cc2F)C(=O)C1=O (stereo partly drawn) [Example 93, (3R)-3-(2-(4-(2-aminoethyl)-2,3-dioxopiperazine-1-carboxamido)-2-(2,5-difluoro-4-hydroxyphenyl)acetamido)-2-hydroxy-3,4-dihydro-2H-benzo[e][1,2]oxaborinine-8-carboxylic acid]",> 64 µg/mL,32 to 64 µg/mL,8 to 16 µg/mL,32 to 64 µg/mL,0.5 to 1 µg/mL,> 128 µg/mL,> 128 µg/mL,2 to 4 µg/mL,8 to 16 µg/mL,8 to 16 µg/mL,2 to 4 µg/mL,0.5 to 1 µg/mL,32 to 64 µg/mL
"NCCN1CCN(C(=O)NC(C(=O)N[C@H]2Cc3cccc(C(=O)O)c3OB2O)c2c(F)cc(O)cc2Cl)C(=O)C1=O (stereo partly drawn) [Example 94, (3R)-3-(2-(4-(2-aminoethyl)-2,3-dioxopiperazine-1-carboxamido)-2-(2-chloro-6-fluoro-4-hydroxyphenyl)acetamido)-2-hydroxy-3,4-dihydro-2H-benzo[e][1,2]oxaborinine-8-carboxylic acid]",> 64 µg/mL,32 to 64 µg/mL,32 to 64 µg/mL,32 to 64 µg/mL,0.5 to 1 µg/mL,> 128 µg/mL,> 128 µg/mL,2 to 4 µg/mL,32 to 64 µg/mL,32 to 64 µg/mL,8 to 16 µg/mL,2 to 4 µg/mL,32 to 64 µg/mL
"CCN1CCN(C(=O)NC(C(=O)N[C@H]2Cc3cccc(C(=O)O)c3OB2O)c2c(F)cc(O)cc2Cl)C(=O)C1=O (stereo partly drawn) [Example 95, (3R)-3-(2-(2-chloro-6-fluoro-4-hydroxyphenyl)-2-(4-ethyl-2,3-dioxopiperazine-1-carboxamido)acetamido)-2-hydroxy-3,4-dihydro-2H-benzo[e][1,2]oxaborinine-8-carboxylic acid]",16 to 32 µg/mL,32 to 64 µg/mL,8 to 16 µg/mL,32 to 64 µg/mL,< 0.25 µg/mL,> 128 µg/mL,> 128 µg/mL,0.5 to 1 µg/mL,8 to 16 µg/mL,8 to 16 µg/mL,0.5 to 1 µg/mL,2 to 4 µg/mL,32 to 64 µg/mL
"CCN1CCN(C(=O)NC(C(=O)N[C@H]2Cc3cccc(C(=O)O)c3OB2O)c2cccc(NC(=O)c3cncnc3)c2)C(=O)C1=O (stereo partly drawn) [Example 96, (3R)-3-(2-(4-ethyl-2,3-dioxopiperazine-1-carboxamido)-2-(3-(pyrimidine-5-carboxamido)phenyl)acetamido)-2-hydroxy-3,4-dihydro-2H-benzo[e][1,2]oxaborinine-8-carboxylic acid]",> 64 µg/mL,> 128 µg/mL,> 128 µg/mL,32 to 64 µg/mL,0.5 to 1 µg/mL,> 128 µg/mL,> 128 µg/mL,8 to 16 µg/mL,> 128 µg/mL,> 128 µg/mL,8 to 16 µg/mL,2 to 4 µg/mL,> 128 µg/mL
"CCN1CCN(C(=O)NC(C(=O)N[C@H]2Cc3cccc(C(=O)O)c3OB2O)c2cccc(NC(=O)c3cccnc3)c2)C(=O)C1=O (stereo partly drawn) [Example 97, (3R)-3-(2-(4-ethyl-2,3-dioxopiperazine-1-carboxamido)-2-(3-(nicotinamido)phenyl)acetamido)-2-hydroxy-3,4-dihydro-2H-benzo[e][1,2]oxaborinine-8-carboxylic acid]",> 64 µg/mL,> 128 µg/mL,> 128 µg/mL,32 to 64 µg/mL,0.5 to 1 µg/mL,> 128 µg/mL,> 128 µg/mL,8 to 16 µg/mL,> 128 µg/mL,> 128 µg/mL,8 to 16 µg/mL,8 to 16 µg/mL,> 128 µg/mL
"CCN1CCN(C(=O)NC(C(=O)N[C@H]2Cc3cccc(C(=O)O)c3OB2O)c2cccc(NS(N)(=O)=O)c2)C(=O)C1=O (stereo partly drawn) [Example 98, (3R)-3-(2-(4-ethyl-2,3-dioxopiperazine-1-carboxamido)-2-(3-(sulfamoylamino)phenyl)acetamido)-2-hydroxy-3,4-dihydro-2H-benzo[e][1,2]oxaborinine-8-carboxylic acid]",16 to 32 µg/mL,32 to 64 µg/mL,32 to 64 µg/mL,8 to 16 µg/mL,< 0.25 µg/mL,> 128 µg/mL,> 128 µg/mL,0.5 to 1 µg/mL,8 to 16 µg/mL,8 to 16 µg/mL,0.5 to 1 µg/mL,0.5 to 1 µg/mL,> 128 µg/mL
"CCN1CCN(C(=O)NC(C(=O)N[C@H]2Cc3cccc(C(=O)O)c3OB2O)c2cccc(S(N)(=O)=O)c2)C(=O)C1=O (stereo partly drawn) [Example 99, (3R)-3-(2-(4-ethyl-2,3-dioxopiperazine-1-carboxamido)-2-(3-sulfamoylphenyl)acetamido)-2-hydroxy-3,4-dihydro-2H-benzo[e][1,2]oxaborinine-8-carboxylic acid]",16 to 32 µg/mL,32 to 64 µg/mL,32 to 64 µg/mL,8 to 16 µg/mL,< 0.25 µg/mL,> 128 µg/mL,> 128 µg/mL,2 to 4 µg/mL,32 to 64 µg/mL,32 to 64 µg/mL,2 to 4 µg/mL,2 to 4 µg/mL,32 to 64 µg/mL
